In brackets after ≈: the same amount, converted by molar mass. Where two headings read alike, the source gives them in different places.
How the values were obtained:
hepatitis C virus = details: patients, minimum dose, within a few days (1-2 days in some cases); cited from earlier work
[1] = system: HepG2 (human hepatoma cells); assay: MTT assay, in vitro inhibition of proliferation of human tumor cells; format: cell-based; details: for IC50: Homo sapiens, HepG2, 72 h; for HepG2 100 μg/ml IC %: inhibition at 100 μg/ml, 72 h
Experimental: (§1) The tumor cell lines used in the experiments were as follows: A549 (human lung cancer cells), HCT116 (human colon cancer cells), HepG2 (human hepatoma cells), ZR-75-30 (human breast cancer cell), purchased from Shanghai Institute of Pharmaceutical Industry.
(§2) The sample was dissloved in DMSO (Merck), and PBS was added to prepare a 1000 μg/mL of solution or a uniform suspension. And then, DMSO-containing PBS (−) was added to dilute the solution or suspension. The positive control medicaments were gemcitabine (GEM) and LY2334737 developed by Eli Lilly and Company.
(§3) MTT assay: 100 μL cell suspension (4˜5×10^4 cells/mL) was added into each well of 96-well plate, and cultured in 37° C., 5% CO2 incubator. After 24 h, the sample solution was added in duplicate, 10 μL/well, and incubated at 37° C., 5% CO2 for 72 h. 20 μL MTT solution (5 mg/mL) was added into each well. After 4 h, a dissolving solution was added, 100 μL/well. The plate was placed into the incubator. After dissolved, OD value at 570 nm was measured on MK-2 automatic microplate reader.

[2] = system: A549 (human lung cancer cells); assay: as above; format: cell-based; details: for IC50: Homo sapiens, A549, 72 h; for A549 100 μg/ml IC %: inhibition at 100 μg/ml, 72 h
Experimental: as §1, §2, §3

[3] = system: HCT116 (human colon cancer cells); assay: as above; format: cell-based; details: for IC50: Homo sapiens, HCT-116, 72 h; for HCT116 100 μg/ml IC %: inhibition at 100 μg/ml, 72 h
Experimental: as §1, §2, §3

[4] = system: ZR-75-30 (human breast cancer cell); assay: as above; format: cell-based; details: for IC50: Homo sapiens, ZR-75-30, 72 h; for ZR-75-30 100 μg/ml IC %: inhibition at 100 μg/ml, 72 h
Experimental: as §1, §2, §3

[5] = system: human colon cancer cells HCT116 xenografts; assay: In vivo antitumor activity test, xenografts in nude mice; details: dosed 0.1-10 mg/kg body weight, better than LY2334737 at the same dose
Experimental: Some of the compounds were tested in vivo using human colon cancer cells HCT116 xenografts in nude mice according to a literature method (Wei Hong, Medical Laboratory Animal Science, Sichuan Science and Technology Press, 2nd edition, Chengdu, 2001, 595-596).

NCI 60 human tumor cells = assay: NCI in vitro cytotoxic activity screening; format: cell-based; details: for GI50: Homo sapiens, derived from MGM; for MGM: NCI 60 human tumor cells, GI50 in M (log)
Experimental: The cytotoxic activities of Compounds SYN-141 and SYN-165 were assayed in NCI systemactically.

| Structure (SMILES) | IC50 [1] [µg/mL] | IC50 [2] [µg/mL] | IC50 [3] [µg/mL] | IC50 [4] [µg/mL] | melting point [°C] | reduction of hepatitis C viral load (hepatitis C virus) [logarithmic unit] | HepG2 100 μg/ml IC % [1] [%] | A549 100 μg/ml IC % [2] [%] | HCT116 100 μg/ml IC % [3] [%] | ZR-75-30 100 μg/ml IC % [4] [%] | in vivo antitumor activity [5] | GI50 (NCI 60 human tumor cells; read-out: total average GI50 against 60 human tumor cell lines) [nM] | MGM (NCI 60 human tumor cells) | GI50 (NCI 60 human tumor cells; read-out: total average GI50 against 60 human tumor cells) [nM] |
| --- | --- | --- | --- | --- | --- | --- | --- | --- | --- | --- | --- | --- | --- | --- |
| Nc1ccn([C@@H]2O[C@H](CO)[C@@H](O)C2(F)F)c(=O)n1 [GEM, gemcitabine] | 0.263 (≈ 0.999 µM) | 3.74 (≈ 14.2 µM) | 0.0237 (≈ 0.09 µM) | 0.454 (≈ 1.72 µM) |  | ≥ 2 | 53.34 | 57.57 | 78.07 | 96.60 |  |  |  |  |
| CCCC(CCC)C(=O)Nc1ccn([C@@H]2O[C@H](CO)[C@@H](O)C2(F)F)c(=O)n1 [LY-2334737, N4-valproyl gemcitabine, reference compound] | 1.78 (≈ 4.57 µM) | 18.3 (≈ 46.9 µM) | 3.81 (≈ 9.78 µM) | 29.3 (≈ 75.3 µM) |  |  | 67.52 | 60.05 | 84.51 | 78.36 |  |  |  |  |

Continued, in another order:

| IC50 [1] [µg/mL] | IC50 [2] [µg/mL] | IC50 [3] [µg/mL] | IC50 [4] [µg/mL] | melting point [°C] | Structure (SMILES) | reduction of hepatitis C viral load (hepatitis C virus) [logarithmic unit] | HepG2 100 μg/ml IC % [1] [%] | A549 100 μg/ml IC % [2] [%] | HCT116 100 μg/ml IC % [3] [%] | ZR-75-30 100 μg/ml IC % [4] [%] | in vivo antitumor activity [5] | GI50 (NCI 60 human tumor cells; read-out: total average GI50 against 60 human tumor cell lines) [nM] | MGM (NCI 60 human tumor cells) | GI50 (NCI 60 human tumor cells; read-out: total average GI50 against 60 human tumor cells) [nM] |
| --- | --- | --- | --- | --- | --- | --- | --- | --- | --- | --- | --- | --- | --- | --- |
| 84.4 (≈ 253 µM) | 4.26 (≈ 12.8 µM) | 0.395 (≈ 1.19 µM) | 3.01 (≈ 9.03 µM) | 198 | CCCC(=O)Nc1ccn([C@@H]2O[C@H](CO)C(O)C2(F)F)c(=O)n1 (stereo partly drawn) [SYN-140, N^4-n-butyryl gemcitabine] |  | 50.42 | 64.84 | 87.79 | 89.52 | potent in vivo antitumor activity |  |  |  |
| 7.2 (≈ 17.6 µM) | 5.6 (≈ 13.7 µM) | 0.269 (≈ 0.657 µM) | 4.7 (≈ 11.5 µM) | 111 | O=C(CCCc1ccccc1)Nc1ccn([C@@H]2O[C@H](CO)C(O)C2(F)F)c(=O)n1 (stereo partly drawn) [SYN-141, N^4-(4-phenyl)butyryl Gemcitabine] |  | 62.48 | 56.38 | 92.46 | 91.63 | potent in vivo antitumor activity | 620 | −6.21 |  |
| 0.246 (≈ 0.708 µM) | 7.82 (≈ 22.5 µM) | 0.193 (≈ 0.556 µM) | 1.13 (≈ 3.25 µM) | 184 | CCCCC(=O)Nc1ccn([C@@H]2O[C@H](CO)C(O)C2(F)F)c(=O)n1 (stereo partly drawn) [SYN-147, N^4-n-valeryl Gemcitabine Gemcitabine] |  | 59.49 | 58.09 | 88.14 | 90.22 | potent in vivo antitumor activity |  |  |  |
| 0.123 (≈ 0.316 µM) | 42.5 (≈ 109 µM) | 0.154 (≈ 0.395 µM) | 0.135 (≈ 0.347 µM) | 139 | CCCCCCCC(=O)Nc1ccn([C@@H]2O[C@H](CO)C(O)C2(F)F)c(=O)n1 (stereo partly drawn) [SYN-165, N^4-n-octanoyl Gemcitabine] |  | 77.90 | 55.82 | 99.01 | 96.30 | potent in vivo antitumor activity |  | −7.12 | 75.8 |

Reference: US20140235568A1, “GEMCITABINE AMIDE DERIVATIVE AND PREPARATION METHOD AND USE THEREOF” (priority 2011, published 2014)
